We go through 32 compounds from patent US11802111B2, “Cyclobutyl amide monoacylglycerol lipase modulators” (Janssen Pharmaceutica NV, priority 2020, dated 2023).

Broadly, the IC50 is the concentration at which inhibition is half-maximal.

The target of this assay is human MGL from HeLa cells (Homo sapiens (Human), UniProt Q99685). The experiment in a line: MGL in vitro activity assay ([glycerol-1,3-3H]-oleoyl glycerol hydrolysis, activated carbon filtration). The class given is biochemical. The conditions noted are these: 300 nM [Glycerol-1,3-3H]-oleoyl glycerol, one hour. The essentials: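 Activity measured as tritium in the flow-through after activated carbon filtration of a 1 h reaction containing 300 nM 3H-oleoyl glycerol, compound and HeLa-derived human MGL. Compounds screened at 10 μM; IC50 series start at an empirically chosen highest concentration.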
Sequence of human MGL from HeLa cells (Q99685 whole entry): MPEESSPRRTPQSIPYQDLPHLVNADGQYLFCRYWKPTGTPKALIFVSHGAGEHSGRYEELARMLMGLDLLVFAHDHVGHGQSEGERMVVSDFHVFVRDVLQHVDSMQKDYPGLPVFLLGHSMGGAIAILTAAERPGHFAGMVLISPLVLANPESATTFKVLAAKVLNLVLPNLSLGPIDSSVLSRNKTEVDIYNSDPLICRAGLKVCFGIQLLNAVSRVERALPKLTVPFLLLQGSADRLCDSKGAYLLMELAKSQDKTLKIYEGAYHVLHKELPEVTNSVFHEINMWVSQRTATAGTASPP
As to `Cn1ncc2c(F)cc(CC3CC4(C3)CN(C(=O)[C@H]3C[C@@](C)(O)C3)C4)cc21` [Example 303, (6-((4-Fluoro-1-methyl-1H-indazol-6-yl)methyl)-2-azaspiro[3.3]heptan-2-yl)((1s,3s)-3-hydroxy-3-methylcyclobutyl)methanone], half-maximal inhibition (IC50) required 29 nM. For `Cn1ncc2cc(F)c(CC3CC4(C3)CN(C(=O)[C@H]3C[C@@](C)(O)C3)C4)cc21` [Example 304, (6-((5-Fluoro-1-methyl-1H-indazol-6-yl)methyl)-2-azaspiro[3.3]heptan-2-yl)((1s,3s)-3-hydroxy-3-methylcyclobutyl)methanone] the value was 13 nM.

In turn, `Cn1ncc2ccc(CC3CC4(C3)CN(C(=O)[C@H]3C[C@@](C)(O)C3)C4)c(F)c21` [Example 305, (6-((7-Fluoro-1-methyl-1H-indazol-6-yl)methyl)-2-azaspiro[3.3]heptan-2-yl)((1s,3s)-3-hydroxy-3-methylcyclobutyl)methanone] came in with an IC50 of 28 nM. Consider `CC(C)n1ncc2ccc(CC3CC4(C3)CN(C(=O)[C@H]3C[C@@](C)(O)C3)C4)cc21` [Example 306, ((1s,3s)-3-Hydroxy-3-methylcyclobutyl)(6-((1-isopropyl-1H-indazol-6-yl)methyl)-2-azaspiro[3.3]heptan-2-yl)methanone], for which the IC50 amounted to 23 nM. Next, `C[C@]1(O)C[C@@H](C(=O)N2CC3(CC(Cc4ccc5cnn(CC(F)(F)F)c5c4)C3)C2)C1` [Example 307, ((1s,3s)-3-Hydroxy-3-methylcyclobutyl)(6-((1-(2,2,2-trifluoroethyl)-1H-indazol-6-yl)methyl)-2-azaspiro[3.3]heptan-2-yl)methanone]: 431 nM; `CC(C)n1cc2ccc(CC3CC4(C3)CN(C(=O)[C@H]3C[C@@](C)(O)C3)C4)cc2n1` [Example 308, ((1s,3s)-3-Hydroxy-3-methylcyclobutyl)(6-((2-isopropyl-2H-indazol-6-yl)methyl)-2-azaspiro[3.3]heptan-2-yl)methanone]: 117 nM; `Cc1nc(OC2CC3(C2)CN(C(=O)[C@H]2C[C@@](C)(O)C2)C3)ccc1C(F)(F)F` [Example 309, ((1s,3s)-3-Hydroxy-3-methylcyclobutyl)(6-((6-methyl-5-(trifluoromethyl)pyridin-2-yl)oxy)-2-azaspiro[3.3]heptan-2-yl)methanone]: 130 nM. Next, `Cn1ccc2ccc(C(F)(F)C3CC4(C3)CN(C(=O)[C@H]3C[C@@](C)(O)C3)C4)nc21` [Example 317, (6-(Difluoro(1-methyl-1H-pyrrolo[2,3-b]pyridin-6-yl)methyl)-2-azaspiro[3.3]heptan-2-yl)((1s,3s)-3-hydroxy-3-methylcyclobutyl)methanone]: 69 nM. Next, `C[C@]1(O)C[C@@H](C(=O)N2CC3(CCC(F)(c4ccccc4)CC3)C2)C1` [Example 340, (7-Fluoro-7-phenyl-2-azaspiro[3.5]nonan-2-yl)((1s,3s)-3-hydroxy-3-methylcyclobutyl)methanone]: 288 nM. `Cn1ccc2ccc(C3(F)CCC4(CC3)CN(C(=O)[C@H]3C[C@@](C)(O)C3)C4)nc21` [Example 341, (7-Fluoro-7-(1-methyl-1H-pyrrolo[2,3-b]pyridin-6-yl)-2-azaspiro[3.5]nonan-2-yl)((1s,3s)-3-hydroxy-3-methylcyclobutyl)methanone] had an IC50 of 101 nM.

In turn, `COC1(c2ccccc2)CCC2(CC1)CN(C(=O)[C@H]1C[C@@](C)(O)C1)C2` [Example 342, ((1s,3s)-3-Hydroxy-3-methylcyclobutyl)(7-methoxy-7-phenyl-2-azaspiro[3.5]nonan-2-yl)methanone] came in with an IC50 of 40 nM. Next, `COC1(c2ccccc2C)CCC2(CC1)CN(C(=O)[C@H]1C[C@@](C)(O)C1)C2` [Example 343, ((1s,3s)-3-Hydroxy-3-methylcyclobutyl)(7-methoxy-7-(o-tolyl)-2-azaspiro[3.5]nonan-2-yl)methanone]: 16 nM. For `COC1(c2cc(C)cc(C)c2)CCC2(CC1)CN(C(=O)[C@H]1C[C@@](C)(O)C1)C2` [Example 344, (7-(3,5-Dimethylphenyl)-7-methoxy-2-azaspiro[3.5]nonan-2-yl)((1s,3s)-3-hydroxy-3-methylcyclobutyl)methanone] the value was 0.84 nM; for `Cn1cnc(-c2cccc(C3CCC4(CC3)CN(C(=O)[C@H]3C[C@@](C)(O)C3)C4)c2)c1` [Example 345, ((1s,3s)-3-Hydroxy-3-methylcyclobutyl)(7-(3-(1-methyl-1H-imidazol-4-yl)phenyl)-2-azaspiro[3.5]nonan-2-yl)methanone], 187 nM. For `C[C@]1(O)C[C@@H](C(=O)N2CC3(CCC(c4ccc(-n5cccn5)cc4)CC3)C2)C1` [Example 346, (7-(4-(1H-Pyrazol-1-yl)phenyl)-2-azaspiro[3.5]nonan-2-yl)((1s,3s)-3-hydroxy-3-methylcyclobutyl)methanone] the value was 295 nM.

Consider `C[C@]1(O)C[C@@H](C(=O)N2CC3(CCC(c4cccc(-n5cccn5)c4)CC3)C2)C1` [Example 347, (7-(3-(1H-Pyrazol-1-yl)phenyl)-2-azaspiro[3.5]nonan-2-yl)((1s,3s)-3-hydroxy-3-methylcyclobutyl)methanone], for which the IC50 was 56 nM. `Cc1cc(F)cc(C2CCC3(CC2)CN(C(=O)[C@H]2C[C@@](C)(O)C2)C3)c1` [Example 352, (7-(3-Fluoro-5-methylphenyl)-2-azaspiro[3.5]nonan-2-yl)((1s,3s)-3-hydroxy-3-methylcyclobutyl)methanone] registered an IC50 of 22 nM.

Turning to `Cc1cc(C2CCC3(CC2)CN(C(=O)[C@H]2C[C@@](C)(O)C2)C3)ccc1F` [Example 353, (7-(4-Fluoro-3-methylphenyl)-2-azaspiro[3.5]nonan-2-yl)((1s,3s)-3-hydroxy-3-methylcyclobutyl)methanone], the IC50 is 18 nM. This IC50 and that of the compound before are within 1.5-fold of each other. `Cc1ccc(F)c(C2CCC3(CC2)CN(C(=O)[C@H]2C[C@@](C)(O)C2)C3)c1` [Example 354, (7-(2-Fluoro-5-methylphenyl)-2-azaspiro[3.5]nonan-2-yl)((1s,3s)-3-hydroxy-3-methylcyclobutyl)methanone] showed an IC50 of 20 nM.

Consider `Cc1cccc(C2CCC3(CC2)CN(C(=O)[C@H]2C[C@@](C)(O)C2)C3)c1F` [Example 355, (7-(2-Fluoro-3-methylphenyl)-2-azaspiro[3.5]nonan-2-yl)((1s,3s)-3-hydroxy-3-methylcyclobutyl)methanone], for which the IC50 was 39 nM. For `Cc1cccc(F)c1C1CCC2(CC1)CN(C(=O)[C@H]1C[C@@](C)(O)C1)C2` [Example 356, (7-(2-Fluoro-6-methylphenyl)-2-azaspiro[3.5]nonan-2-yl)((1s,3s)-3-hydroxy-3-methylcyclobutyl)methanone] the value was 15 nM; for `Cc1cc(F)ccc1C1CCC2(CC1)CN(C(=O)[C@H]1C[C@@](C)(O)C1)C2` [Example 357, (7-(4-Fluoro-2-methylphenyl)-2-azaspiro[3.5]nonan-2-yl)((1s,3s)-3-hydroxy-3-methylcyclobutyl)methanone], 29 nM; for `Cc1ccc(F)cc1C1CCC2(CC1)CN(C(=O)[C@H]1C[C@@](C)(O)C1)C2` [Example 358, (7-(5-Fluoro-2-methylphenyl)-2-azaspiro[3.5]nonan-2-yl)((1s,3s)-3-hydroxy-3-methylcyclobutyl)methanone], 29 nM. Next, `Cc1c(F)cccc1C1CCC2(CC1)CN(C(=O)[C@H]1C[C@@](C)(O)C1)C2` [Example 359, (7-(3-Fluoro-2-methylphenyl)-2-azaspiro[3.5]nonan-2-yl)((1s,3s)-3-hydroxy-3-methylcyclobutyl)methanone]: 18 nM; `CCOc1cc(C2CCC3(CC2)CN(C(=O)[C@H]2C[C@@](C)(O)C2)C3)ccc1C` [Example 360, (7-(3-Ethoxy-4-methylphenyl)-2-azaspiro[3.5]nonan-2-yl)((1s,3s)-3-hydroxy-3-methylcyclobutyl)methanone]: 36 nM.

Turning to `CCOc1cccc(C2CCC3(CC2)CN(C(=O)[C@H]2C[C@@](C)(O)C2)C3)c1C` [Example 361, (7-(3-Ethoxy-2-methylphenyl)-2-azaspiro[3.5]nonan-2-yl)((1s,3s)-3-hydroxy-3-methylcyclobutyl)methanone], the IC50 was found to be 1.8 nM. This IC50 is about 20-fold lower than that of the compound before.

Take `Cc1c(OC(C)C)cccc1C1CCC2(CC1)CN(C(=O)[C@H]1C[C@@](C)(O)C1)C2` [Example 362, ((1s,3s)-3-Hydroxy-3-methylcyclobutyl)(7-(3-isopropoxy-2-methylphenyl)-2-azaspiro[3.5]nonan-2-yl)methanone]: it took 1.5 nM to reach half-maximal inhibition (IC50). In the case of `COc1ccc(C)c(C2CCC3(CC2)CN(C(=O)[C@H]2C[C@@](C)(O)C2)C3)c1` [Example 363, ((1s,3s)-3-Hydroxy-3-methylcyclobutyl)(7-(5-methoxy-2-methylphenyl)-2-azaspiro[3.5]nonan-2-yl)methanone], 164 nM corresponded to half-maximal inhibition (IC50). In turn, `Cc1c(OC2CC2)cccc1C1CCC2(CC1)CN(C(=O)[C@H]1C[C@@](C)(O)C1)C2` [Example 364, (7-(3-Cyclopropoxy-2-methylphenyl)-2-azaspiro[3.5]nonan-2-yl)((1s,3s)-3-hydroxy-3-methylcyclobutyl)methanone] displayed a 50% inhibitory concentration (IC50) of 2.9 nM.

In turn, `CCOc1cc(F)cc(C2CCC3(CC2)CN(C(=O)[C@H]2C[C@@](C)(O)C2)C3)c1` [Example 365, (7-(3-Ethoxy-5-fluorophenyl)-2-azaspiro[3.5]nonan-2-yl)((1s,3s)-3-hydroxy-3-methylcyclobutyl)methanone] displayed an IC50 of 22 nM. Compared with the last compound, the IC50 is about 7.6-fold higher. Next, `COc1cccc(C2CCC3(CC2)CN(C(=O)[C@H]2C[C@@](C)(O)C2)C3)c1F` [Example 366, (7-(2-Fluoro-3-methoxyphenyl)-2-azaspiro[3.5]nonan-2-yl)((1s,3s)-3-hydroxy-3-methylcyclobutyl)methanone]: 50 nM; `COc1cccc(C2CCC3(CC2)CN(C(=O)[C@H]2C[C@@](C)(O)C2)C3)c1Cl` [Example 367, (7-(2-Chloro-3-methoxyphenyl)-2-azaspiro[3.5]nonan-2-yl)((1s,3s)-3-hydroxy-3-methylcyclobutyl)methanone]: 40 nM.
